Source: the supplement of paper PMC4862054

Tests used:
[1] = test system: CAL-148; test: normalised viability (% of control), CellTiter-Blue; higher = more viable cells (about 100 = DMSO control); settings: incubation time: 72 h
In short: (§1)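 Vehicle (100) and a positive kill control (0) anchored the normalisation of each plate, and Z'-factor was used for quality control. Breast cancer cell lines in 20 µl suspension were incubated 72 h over compound in 5 µl medium in 384-well plates, followed by CellTiter-Blue at 560/590 nm. The value is normalised viability at a single listed concentration of the series.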

[2] = test system: HDQ-P1; test: as above; settings: incubation time: 72 h
In short: as §1

[3] = test system: CAL-85-1; test: as above; settings: incubation time: 72 h
In short: as §1

[4] = test system: CAL-51; test: as above; settings: incubation time: 72 h
In short: as §1

[5] = test system: DU-4475; test: as above; settings: incubation time: 72 h
In short: as §1

[6] = test system: MDA-MB-453; test: as above; settings: incubation time: 72 h
In short: as §1

[7] = test system: CAL-148; test: normalised response (% of control), CellTiter-Glo; higher = more viable cells (100 = DMSO, 0 = benzethonium chloride kill control); settings: incubation time: 72 h
In short: (§2)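 After 72 h with compound in 384-well plates, breast cancer cell lines seeded as 20 µl suspension were read for CellTox Green fluorescence at 485/520 nm. CellTiter-Glo luminescence was then read after 10 min at room temperature. Compound was present at 5 concentrations in 10-fold steps over a 10,000-fold range set per compound, and plates were normalised to 0.1 % DMSO (100) and a positive kill control (0). Values are normalised signals, each at a single concentration.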

[8] = test system: HDQ-P1; test: as above; settings: incubation time: 72 h
In short: as §2

[9] = test system: MDA-MB-231; test: as above; settings: incubation time: 72 h
In short: as §2

[10] = test system: HCC1937; test: as above; settings: incubation time: 72 h
In short: as §2

[11] = test system: HCC1143; test: as above; settings: incubation time: 72 h
In short: as §2

[12] = test system: BT-474; test: as above; settings: incubation time: 72 h
In short: as §2

[13] = test system: MDA-MB-468; test: as above; settings: incubation time: 72 h
In short: as §2

[14] = test system: CAL-51; test: as above; settings: incubation time: 72 h
In short: as §2

[15] = test system: HCC1599; test: as above; settings: incubation time: 72 h
In short: as §2

[16] = test system: MFM-223; test: as above; settings: incubation time: 72 h
In short: as §2

[17] = test system: HCC1937; test: normalised viability (% of control), CellTiter-Blue; higher = more viable cells (about 100 = DMSO control); settings: incubation time: 72 h
In short: as §1

[18] = test system: MDA-MB-436; test: as above; settings: incubation time: 72 h
In short: as §1

[19] = test system: MDA-MB-453; settings: 72 h
In short: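 Plates of 384 wells holding compound in 5 µl medium received breast cancer cell lines in 20 µl suspension and were incubated 72 h. CellTiter-Blue (2.5 µl, 2 h, 37 °C) was used for viability, read at 560/590 nm, and every plate was normalised to vehicle and a positive kill control and assessed by Z'-factor. The EC50 derives from a percent-inhibition dose-response curve fit censored at the highest concentration, leaving out rows whose drug sensitivity score was zero.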

Row | EC50, CellTiter-Blue viability [19] | SMILES | normalised viability [1] | normalised viability [2] | normalised viability [3] | normalised viability [4] | normalised viability [5] | normalised viability [6] | normalised response [7] | normalised response [8] | normalised response [9] | normalised response [10] | normalised response [11] | normalised response [12] | normalised response [13] | normalised response [14] | normalised response [15] | normalised response [16] | normalised viability ([17]; 10 nM) | normalised viability ([17]; 1000 nM) | normalised viability ([17]; 10000 nM) | normalised viability ([18]; 10 nM) | normalised viability ([18]; 1000 nM) | normalised viability ([18]; 10000 nM)
1 |  | C#Cc1cccc(Nc2ncnc3cc(OC)c(OCCCCCCC(=O)NO)cc23)c1 [CUDC-101] (10000 nM) | 0.77% | 19.3% | 1.33% | 18.1% | 1.42% | 0.71% | 0.32% | 33.4% | 2.74% | 21% | 15.1% | 8.24% | 9.04% | 12.8% | 7.05% | 26.4% |  |  |  |  |  | 
2 |  | COC1=C2C[C@@H](C)C[C@H](OC)[C@H](O)[C@@H](C)/C=C(\C)[C@H](OC(N)=O)[C@@H](OC)/C=C\C=C(/C)C(=O)NC(=CC1=O)C2=O [Geldanamycin] (10000 nM) | 7.57% | 14.5% | 6.88% | 2.17% | -0.94% | 7.62% | 33.4% | 19% | 3.82% | 24.2% | 24.1% | 8.17% | 7.56% | 6.33% | 45% | 20.3% |  |  |  |  |  | 
3 |  | Cn1c(=O)c(F)c(Nc2ccc(I)cc2F)c2c(=O)n(C[C@@H](O)CO)cnc21 [TAK-733] (1000 nM) | 92.8% | 60% | 39.7% | 66% | 0.83% | 51.2% | 98.9% | 55.3% | 56.4% | 68.3% | 76.7% | 57.4% | 73.6% | 78.2% | 82% | 70.2% |  |  |  |  |  | 
4 |  | CS(=O)(=O)OCCCCOS(C)(=O)=O [Busulfan] (100000 nM) | 114% | 109% | 105% | 91.9% | 89% | 103% | 106% | 98.4% | 101% | 98.8% | 104% | 89.9% | 108% | 110% | 96% | 107% |  |  |  |  |  | 
5 |  | COc1c(C)cnc(Cn2cnc3c(Cl)nc(N)nc32)c1C [BIIB021] (10000 nM) | 15.7% | 30.4% | 21.7% | 9.69% | -0.63% | 4.83% | 25.1% | 20.3% | 16.7% | 29.4% | 31.5% | 27.5% | 23.8% | 11.4% | 47.4% | 35.1% |  |  |  |  |  | 
6 |  | O=c1[nH]c(=O)n([C@H]2C[C@H](O)[C@@H](CO)O2)cc1F [Floxuridine] (10000 nM) | 31.9% | 93.9% | 39.3% | 15.5% | 56.2% | 32.2% | 95.7% | 82.8% | 67.9% | 42% | 77.6% | 59% | 60.7% | 29.4% | 58.1% | 103% |  |  |  |  |  | 
7 |  | Cn1cnc2c(F)c(Nc3ccc(Br)cc3F)c(C(=O)NOCCO)cc21 [MEK-162] (1000 nM) | 90.6% | 91.2% | 70.5% | 84.5% | -0.34% | 122% | 95.9% | 71.5% | 74.8% | 86% | 86.5% | 73.9% | 88.3% | 76.4% | 100% | 96.2% |  |  |  |  |  | 
8 |  | CC(C)C[C@H](NC(=O)[C@H](Cc1ccccc1)NC(=O)c1cnccn1)B(O)O [Bortezomib] (1000 nM) | 0.38% | -1.16% | 2.28% | 1.02% | 0.03% | 11.1% | 0.43% | 0.65% | 0.08% | 2.46% | 5.75% | 1.31% | 0.97% | 2.86% | 21.3% | 2.91% |  |  |  |  |  | 
9 |  | COc1ncc(-c2ccc3nccc(-c4ccnnc4)c3c2)cc1NS(=O)(=O)c1ccc(F)cc1F (1000 nM) | 2.42% | 14.4% | 18.6% | 3.63% | 10.2% | 5.04% | 6.28% | 12.8% | 33.7% | 24% | 23.6% | 43% | 12.7% | 6.49% | 56.4% | 33.4% |  |  |  |  |  | 
10 | 9.23 µM | O=C(c1ccc(OCCN2CCCCC2)cc1)c1c(-c2ccc(O)cc2)sc2cc(O)ccc12 [Raloxifene] |  |  |  |  |  |  |  |  |  |  |  |  |  |  |  |  | 89.3% | 93.3% | 96.2% | 104% | 86.3% | 76.2%
11 |  | C[C@@]1(C(=O)Nc2ccc(F)nc2)CCCN1c1nc(Nc2cc(C3CC3)n[nH]2)c2cccn2n1 (10000 nM) | 49.1% | 7.47% | 30.6% | 6.06% | 3.48% | 75.3% | 56.7% | 8.28% | 26.1% | 62.6% | 36.1% | 29.8% | 20.4% | 19.9% | 54.9% | 25.2% |  |  |  |  |  | 
